Assay results from patent EP1133986A1, “Use of deramciclane for the treatment of anxiety and depression” (priority 2000, dated 2001).
Read-outs that look alike come from different tables or passages of the source.

Key:
serotonin 5HT2A-receptor [1] = target: T1, serotonin 5HT2A-receptor (Homo sapiens, UniProt P28223); design: serotonin 5-HT2A-receptors in frontal cortex of healthy male volunteers; from tissue; host or cells: frontal cortex of living healthy male volunteers; details: humans, brain 5HT2A-receptor, single oral dose; cited from earlier work
T1 sequence (P28223 whole entry): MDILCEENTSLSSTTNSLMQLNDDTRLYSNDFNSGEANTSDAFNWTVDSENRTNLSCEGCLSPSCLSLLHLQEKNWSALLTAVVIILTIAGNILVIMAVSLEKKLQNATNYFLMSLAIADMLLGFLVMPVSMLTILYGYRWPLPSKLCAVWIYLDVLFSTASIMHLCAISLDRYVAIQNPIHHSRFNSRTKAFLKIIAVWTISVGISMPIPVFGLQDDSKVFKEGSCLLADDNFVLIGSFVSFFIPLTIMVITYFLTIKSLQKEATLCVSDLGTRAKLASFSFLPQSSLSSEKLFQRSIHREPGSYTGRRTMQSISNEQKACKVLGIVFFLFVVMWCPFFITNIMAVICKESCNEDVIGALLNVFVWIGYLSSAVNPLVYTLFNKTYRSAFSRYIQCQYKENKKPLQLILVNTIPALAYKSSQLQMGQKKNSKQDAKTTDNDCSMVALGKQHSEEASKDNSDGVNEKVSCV

mice [2] = details: single subcutaneous administration, 3 mg/kg; cited from earlier work
[3] = rats, 3 mg/kg, cited from earlier work
[4] = human, cited from earlier work
mice [5] = details: oral doses 48-160 mg/kg; cited from earlier work
rat = details: intraperitoneally 1 or 10 mg/kg, 8 times, twice a day, before the test; cited from earlier work
rats [6] = details: single intraperitoneal administration; cited from earlier work
[7] = target: T2, serotonin 5-HT2C-receptor (Homo sapiens, UniProt P28335); details: cited from earlier work
T2 sequence (P28335 33-458): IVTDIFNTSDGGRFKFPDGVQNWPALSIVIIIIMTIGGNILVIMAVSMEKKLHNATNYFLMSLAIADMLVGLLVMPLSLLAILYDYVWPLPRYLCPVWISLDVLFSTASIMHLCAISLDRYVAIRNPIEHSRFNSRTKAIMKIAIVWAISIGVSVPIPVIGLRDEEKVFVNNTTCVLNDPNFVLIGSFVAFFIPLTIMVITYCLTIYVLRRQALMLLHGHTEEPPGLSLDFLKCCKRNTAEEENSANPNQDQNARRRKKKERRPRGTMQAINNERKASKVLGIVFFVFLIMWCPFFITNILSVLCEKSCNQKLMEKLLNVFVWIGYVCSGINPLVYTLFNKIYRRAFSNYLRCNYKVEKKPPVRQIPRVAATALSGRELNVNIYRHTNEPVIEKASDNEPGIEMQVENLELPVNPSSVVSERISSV

rats [8] = details: cited from earlier work
rats [9] = details: oral doses of 25 and 100 mg/kg; cited from earlier work
[10] = tested on: anxiety, specifically GAD; assay: randomised placebo-controlled double-blind study in GAD, Hamilton Anxiety Scale (HAM-A); format: in vivo, humans; details: GAD patients
Protocol: (§1) The efficacy of deramciclane in the treatment of anxiety, specifically GAD, was studied in a randomised placebo-controlled double-blind study. In addition, the dose-dependency of the effects of deramciclane was evaluated. Total of 208 patients were included in the study. The subjects were randomly assigned to four parallel groups to receive one tablet twice daily (b.i.d) of a placebo, 5mg (=10mg/day), 15mg (=30mg/day), or 30mg (=60mg/day) deramciclane. The study started with a one-week placebo run-in period, followed by an eight-week placebo-controlled active treatment and a two-week placebo washout period.
The efficacy of deramciclane on anxiety symptoms was studied by the efficacy variable Hamilton Anxiety Scale (HAM-A), analyzing the change in the score and using responder criterion (at least 50 % reduction in HAM-A total score).

rats [11] = details: cited from earlier work; remark: listed apart in the source
depressive symptoms = assay: randomised placebo-controlled double-blind study in GAD, Montgomery Åsberg Depression Rating Scale (MADRS); format: in vivo, humans; details: GAD patients
Protocol: as §1
The efficacy of deramciclane on depressive symptoms was studied using Montgomery Åsberg Depression Rating Scale (MADRS).

serotonin 5HT2A-receptor [12] = target: T1, serotonin 5HT2A-receptor; details: cited from earlier work
[13] = design: species or system human; details: in vivo
Protocol: A comparative pharmacokinetic study of orally administered deramciclane in rats, dogs, rabbits and humans (Klebovich et al Pharm. Pharmacol. Commun., 4: 129-136, 1998), it was shown that the plasma concentration curves obtained after the administration of a single 3mg/kg oral dose of deramciclane to rats (dogs, rabbits) and human show considerable species specific differences. […] Thus a 40-times lower oral dose of deramciclane could be used in man to result in the same maximal plasma concentration as in rat. […] Thus over 300 times lower oral doses should result in equal exposure in humans than in rats. Basing only the Cmax difference between rat and man, it can be predicted that considerably lower doss should be centrally acitive in humans than in rat. The minimum oral effective anti-anxiety dose in rats was 1 mg/kg (1-30mg/kg the full range; see above), i.e. in a 70 kg-man this would mean 70 mg dose. […] This would result in 70 mg/40= 1.75 mg (i.e. 0.025 mg/kg) as an effective dose in man.

[14] = humans, cited from earlier work; for Cmin and Cmax range: repeated administration for one week
[15] = rat, cited from earlier work
[16] = single oral administration, 3 mg/kg

Q: What does the source list for `CN(C)CCO[C@]1(c2ccccc2)C[C@H]2CC[C@]1(C)C2(C)C` [deramciclane, (lR,2S,4R)-(-)-2-[N,N-(dimethylaminoethoxy)]-2-phenyl-1,7,7-trimethyl-bicyclo[2.2.1]heptane]?
A: plasma concentration at 50% receptor occupancy (serotonin 5HT2A-receptor [1]): ~21 ng/mL; plasma concentration at 90% receptor occupancy (serotonin 5HT2A-receptor [1]): about 70 ng/ml; activity in two compartment test (mice [2]): active; radioactivity in several organs including blood and the brain ([3]; intravenous administration): high radioactivity; radioactivity in organs, especially in the brain ([3]; oral administration, compared with intravenous): substantially lower; peak plasma concentration (Cmax) ([4]; single 3 mg/kg oral dose): 0.2175 µg/mL; mean AUC 0 - ∞ [4, 16]: 3.7378 µg·h/mL; effect on tetrabenazine-induced ptosis (mice [5]): negligible; helpless behaviour induced by inescapable electric foot shocks (rat): dose dependently attenuated; minimum effective dose (social interaction time) (rats [6]): 0.7 mg/kg; antagonism of the receptor [7]: potent antagonist; binding affinity ([7]; in vitro): high affinity; minimum oral effective anti-anxiety dose (rats [8]; oral): 1 mg/kg; activity in punished drinking test (rats [8]; single oral administration, 1 mg/kg and 10 mg/kg): active; effect in forced swimming test (rats [9]): clearly ineffective; HAM-A score compared with placebo ([10]; 5 mg b.i.d, eight weeks): No difference; responders (at least 50 % reduction in HAM-A scale) ([10]; 5 mg b.i.d. (n=31), placebo 54 %): 57%; decrease of HAM-A score from baseline ([10]; 15 mg b.i.d, eight weeks, p=0.006 versus placebo): 14.5 points; responders (at least 50 % reduction in HAM-A scale) ([10]; 15 mg b.i.d. (n=39), p=0.020 versus placebo): 76%; responders (at least 50 % reduction in HAM-A scale) ([10]; 30 mg b.i.d. (n=37)): 70%; decrease of HAM-A score from baseline ([10]; 30 mg b.i.d., eight weeks, not significant versus placebo): 14.5 points; caerulein-induced decrease in exploratory behavior (rats [11]; intraperitoneal dose of 0.5 mg/kg): able to attenuate; effect in elevated plus maze test (rats [11]; rats, single intraperitoneal doses 0.1 mg/kg - 5 mg/kg): totally ineffective; effect on MADRS scores (depressive symptoms; 5 mg b.i.d): ineffective; decrease of MADRS scores (depressive symptoms; 15mg b.i.d, p= 0.028): 7.7 points; decrease of MADRS scores (depressive symptoms; 30 mg b.i.d, p= 0.016): 8.0 points; antagonism of the receptor (serotonin 5HT2A-receptor [12]): potent antagonist; binding affinity (serotonin 5HT2A-receptor [12]; in vitro): high affinity; factor by which oral dose in man can be lower for the same maximal plasma concentration as in rat [13]: 40 times; factor by which oral doses in humans can be lower for equal exposure as in rats [13]: over 300 times; Cmin and Cmax range ([14]; 20 mg daily dose): 0.016 to 0.033 µg/mL; Cmin and Cmax range ([14]; 60 mg daily dose): 0.048 to 0.091 µg/mL; Cmax ([14]; single oral administration of 20 mg): 0.024 ± 0.0094 µg/mL; Cmax ([14]; single oral administration of 30 mg): 0.027 ± 0.0061 µg/mL; peak plasma concentration (Cmax) ([15]; single 3 mg/kg oral dose): 0.0054 µg/mL; mean AUC 0 - ∞ [15, 16]: 0.0119 µg·h/mL
